These results are taken from article PMC6237173, “Synthesis of novel 6,7-dimethoxy-4-anilinoquinolines as potent c-Met inhibitors” (Journal of Enzyme Inhibition and Medicinal Chemistry, 2018).

Data set [1] deals with MCF-7 (human breast cancer) cell line. The experiment in a line: Cell proliferation assay (MTT), MCF-7. As to conditions: MCF7, 48 h exposure, n = 3 (mean ± SD), read-out: Proliferative inhibition IC50, MCF-7. It counts as cell-based. As to the method:
(§1) The anti-proliferative activities of the prepared compounds (12a-12s) were evaluated against A549, MCF-7 and MKN-45 cell lines by MTT assay in vitro. Briefly, tumour cells were cultured to log phase in RPMI 1640 medium supplemented with 10% foetal bovine serum (FBS). After diluting to 2 × 10^4 cells mL^−1 with the complete medium, 100 µL of the obtained cell suspension was added to each well of 96-well culture plates. Subsequently, incubation was performed at 37 °C in 5% CO2 for 24 h before the anti-proliferative assessment. Tested samples at pre-set concentrations were added to 6 wells with cabozantinib as a positive reference. After 48 h exposure period, 40 µL of PBS containing 2.5 mg mL^−1 of MTT was added to each well. Four hours later, 100 µL extraction solution (10% SDS-5% isobutyl alcohol-0.010M HCl) was added. After an overnight incubation at 37°C, the absorbance was measured at a wavelength of 570 nm with an ELISA microplate reader. All compounds were tested three times in each tumour cell lines. The IC50 values were the averages of three determinations and calculated by concentration-response curve fitting method.
(§2) All the synthesised compounds […] were evaluated for their antiproliferation activities against A549 (human lung cancer), MCF-7 (human breast cancer) and MKN-45 (human gastric cancer) cell lines by MTT assay, using cabozantinib as the positive control.

The subject of data set [2] is MKN-45 (human gastric cancer) cell line. The experiment in a line: Cell proliferation assay (MTT), MKN-45. Format: cell-based. As to conditions: 48 h exposure, n = 3 (mean ± SD), read-out: Proliferative inhibition IC50, MKN-45. As to the method: as §1, §2
The target in a further data set is T1, c-Met kinase (Homo sapiens, UniProt P08581).
T1 construct: purchased Carna
The experiment in a line: c-Met inhibition assay (Caliper motility shift assay). It counts as biochemical. The conditions noted are these: for c-Met inhibition % Inhibition (10 μΜ): 10 μΜ compound; for c-Met inhibition % Inhibition (10 μΜ) / IC50: n = 3 (mean ± SD); for c-Met inhibitory activity in words: SAR statement, ortho-substituted compounds. As to the method: A Caliper motility shift assay was applied to test the potency of synthesised compounds against c-Met kinase. Briefly, the compounds were dissolved in DMSO (Sigma) at 0.5 mM concentration, and then were diluted 50× to the final desired highest inhibitor concentration (10 μM) in reaction by DMSO. For all compounds, 100 μL of the diluted compound solution in tubes was transferred to a well on a 96-well plate (Corning) and was serially diluted 10× by transferring 10 μL dilution to 90 μL DMSO in the next well. 100 μL DMSO was added to two empty wells in the same 96-well plate for no compound control and no enzyme control. The plate was marked as source plate. 10 μL of compound solution from source plate was transferred to a new 96-well plate as the intermediate plate. […] After that, 5 μL solution from each well of the intermediate plate was transferred to a 384-well plate (Corning) as the assay plate in duplicates.c-Met kinase (Carna) was added in 1× kinase base buffer to prepare 2.5× enzyme solution, and FAM-labled peptide (GL Biochem) and ATP (Sigma) were added in 1× kinase base buffer to prepare 2.5× peptide solution. 10 μL of 2.5× enzyme solution was added to each well of the 384-well assay plate that already contained 5 μL of compound in 10% DMSO, and then incubated at room temperature for 10 min. […] The data were collected on Caliper and the conversion data were copied from Caliper program.
IC50 values were calculated from three independent experiments by fitting the data in XLfit with the following equation: Y = Bottom + (Top-Bottom)/(1 + (IC50/X)^HillSlope).

Data set [3] relates to A549 (human lung cancer) cell line. Kind of data set: Cell proliferation assay (MTT), A549. It counts as cell-based. As to conditions: 48 h exposure, n = 3 (mean ± SD), read-out: Proliferative inhibition IC50, A549. As to the method: as §1, §2

T1 sequence (P08581 25-1390): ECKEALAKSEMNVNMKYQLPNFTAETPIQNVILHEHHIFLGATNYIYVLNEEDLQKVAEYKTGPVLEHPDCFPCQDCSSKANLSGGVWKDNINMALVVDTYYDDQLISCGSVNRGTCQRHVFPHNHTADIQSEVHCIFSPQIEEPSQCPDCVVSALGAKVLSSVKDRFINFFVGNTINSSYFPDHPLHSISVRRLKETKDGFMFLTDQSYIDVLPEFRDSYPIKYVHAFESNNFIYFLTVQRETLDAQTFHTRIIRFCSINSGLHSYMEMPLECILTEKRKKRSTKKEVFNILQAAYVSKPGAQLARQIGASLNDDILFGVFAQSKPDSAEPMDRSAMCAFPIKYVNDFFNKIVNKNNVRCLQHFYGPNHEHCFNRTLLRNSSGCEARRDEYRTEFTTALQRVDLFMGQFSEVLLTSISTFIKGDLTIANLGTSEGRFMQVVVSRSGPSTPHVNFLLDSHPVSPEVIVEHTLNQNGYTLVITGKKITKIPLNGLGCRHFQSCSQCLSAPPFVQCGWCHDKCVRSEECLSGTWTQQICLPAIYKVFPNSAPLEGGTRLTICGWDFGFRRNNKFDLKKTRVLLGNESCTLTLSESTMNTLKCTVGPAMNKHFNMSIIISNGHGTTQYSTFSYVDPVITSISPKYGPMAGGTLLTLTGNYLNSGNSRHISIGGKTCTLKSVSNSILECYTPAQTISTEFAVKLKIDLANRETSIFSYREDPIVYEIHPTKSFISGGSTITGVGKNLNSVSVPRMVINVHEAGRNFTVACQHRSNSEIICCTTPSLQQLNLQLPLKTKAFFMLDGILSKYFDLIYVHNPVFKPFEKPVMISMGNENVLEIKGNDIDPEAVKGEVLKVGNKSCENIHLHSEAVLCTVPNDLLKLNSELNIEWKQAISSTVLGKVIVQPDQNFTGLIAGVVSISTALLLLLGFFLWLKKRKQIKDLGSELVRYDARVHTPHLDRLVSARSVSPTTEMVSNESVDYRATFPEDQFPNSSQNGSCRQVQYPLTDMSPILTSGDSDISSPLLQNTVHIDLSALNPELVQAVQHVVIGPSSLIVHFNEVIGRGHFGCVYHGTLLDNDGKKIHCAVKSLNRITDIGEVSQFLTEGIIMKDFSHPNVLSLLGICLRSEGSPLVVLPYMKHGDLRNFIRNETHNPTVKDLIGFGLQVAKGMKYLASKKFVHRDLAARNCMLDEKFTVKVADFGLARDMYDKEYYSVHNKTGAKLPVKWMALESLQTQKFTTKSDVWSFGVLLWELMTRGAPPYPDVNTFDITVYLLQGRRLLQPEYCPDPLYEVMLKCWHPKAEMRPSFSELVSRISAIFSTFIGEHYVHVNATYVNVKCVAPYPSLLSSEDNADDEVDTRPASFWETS

The term IC50 denotes the concentration that inhibits the measured activity by half. A word on the melting point: it is the temperature, or range, at which the solid turns liquid. `COc1cc2nccc(Nc3ccc4nc(-c5ccccc5I)[nH]c4c3)c2cc1OC` [Compound 12h, N-(2–(2-iodophenyl)-1H-benzo[d]imidazol-6-yl)-6,7-dimethoxyquinolin-4-amine]: the melting point fell in the range of 207 to 209 °C. In data set [1], the IC50 is above 100 µM. Moreover, the IC50 in data set [2] is above 100 µM. The “c-Met inhibition % Inhibition (10 μΜ)” value on c-Met kinase was 21.6 ± 2.5%. In data set [3], the IC50 amounted to 92.4 ± 5.1 µM.

`COc1cc2nccc(Nc3ccc4nc(-c5cccc(I)c5)[nH]c4c3)c2cc1OC` [Compound 12i, N-(2–(3-iodophenyl)-1H-benzo[d]imidazol-6-yl)-6,7-dimethoxyquinolin-4-amine] gave a melting point of 201 to 203 °C. In addition, in data set [1], the IC50 worked out at 30.5 ± 1.6 µM. Besides, in data set [2], the IC50 stood at 36.1 ± 2.7 µM. Besides, on c-Met kinase, the “c-Met inhibition % Inhibition (10 μΜ)” value stood at 66.0 ± 0.8% and the IC50 was 0.54 ± 0.13 µM. Further, the IC50 in data set [3] turned out to be 23.8 ± 2 µM.

In the case of `COc1cc2nccc(Nc3ccc4nc(-c5ccccc5C)[nH]c4c3)c2cc1OC` [Compound 12j, 6,7-Dimethoxy-N-(2-(o-tolyl)-1H-benzo[d]imidazol-6-yl)quinolin-4-amine], the melting point was in the range of 174 to 175 °C. Further, in data set [1], the IC50 is above 100 µM. In addition, the IC50 in data set [2] was above 100 µM. The “c-Met inhibition % Inhibition (10 μΜ)” value on c-Met kinase was 23.0 ± 0.4%. In addition, in data set [3], the IC50 is above 100 µM.

On to `COc1cc2nccc(Nc3ccc4nc(-c5cccc(C)c5)[nH]c4c3)c2cc1OC` [Compound 12k, 6,7-Dimethoxy-N-(2-(m-tolyl)-1H-benzo[d]imidazol-6-yl)quinolin-4-amine], for which the melting point fell in the range of 339 to 342 °C. Further, the IC50 in data set [1] came to 78.3 ± 3.5 µM. In addition, the IC50 in data set [2] is 87.2 ± 6.7 µM. Further, on c-Met kinase, the “c-Met inhibition % Inhibition (10 μΜ)” value was found to be 52.7 ± 1.6% and the IC50 stood at 8.5 ± 2 µM. Moreover, the IC50 in data set [3] was 72.6 ± 6.5 µM.

With `COc1cc2nccc(Nc3ccc4nc(-c5ccc(C)cc5)[nH]c4c3)c2cc1OC` [Compound 12l, 6,7-Dimethoxy-N-(2-(p-tolyl)-1H-benzo[d]imidazol-6-yl)quinolin-4-amine], the melting point is 316 to 319 °C. Besides, the IC50 in data set [1] is 24 ± 0.9 µM. The IC50 in data set [2] came out at 31.8 ± 1.4 µM. Moreover, on c-Met kinase, the “c-Met inhibition % Inhibition (10 μΜ)” value was 69.0 ± 1.2% and the IC50 is 0.32 ± 0.07 µM. The IC50 in data set [3] came out at 27.3 ± 1.6 µM.

In turn, `CCc1ccc(-c2nc3ccc(Nc4ccnc5cc(OC)c(OC)cc45)cc3[nH]2)cc1` [Compound 12m, N-(2–(4-ethylphenyl)-1H-benzo[d]imidazol-6-yl)-6,7-dimethoxyquinolin-4-amine] registered a melting point of 210 to 212 °C. Moreover, the IC50 in data set [1] worked out at 18.4 ± 2.1 µM. The IC50 in data set [2] worked out at 14.9 ± 0.7 µM. Also, at c-Met kinase, the “c-Met inhibition % Inhibition (10 μΜ)” value is reported as 95.0 ± 0.3% and the IC50 stood at 0.056 ± 0.012 µM. Further, the IC50 in data set [3] is 12.5 ± 1.3 µM.

`COc1cc2nccc(Nc3ccc4nc(-c5ccc(C(C)(C)C)cc5)[nH]c4c3)c2cc1OC` [Compound 12n, N-(2–(4-(tert-butyl)phenyl)-1H-benzo[d]imidazol-6-yl)-6,7-dimethoxyquinolin-4-amine]: the melting point was in the range of 257 to 259 °C. The IC50 in data set [1] came to 6.1 ± 0.6 µM. In data set [2], the IC50 was determined as 13.4 ± 0.5 µM. On c-Met kinase, the “c-Met inhibition % Inhibition (10 μΜ)” value amounted to 97.1 ± 3.5% and the IC50 was found to be 0.03 ± 0.008 µM. Also, the IC50 in data set [3] stood at 7.3 ± 1 µM.

`COc1cc2nccc(Nc3ccc4nc(-c5ccccc5OC)[nH]c4c3)c2cc1OC` [Compound 12o, 6,7-Dimethoxy-N-(2–(2-methoxyphenyl)-1H-benzo[d]imidazol-6-yl)quinolin-4-amine] registered a melting point of 164 to 166 °C. The IC50 in data set [1] is above 100 µM. In addition, the IC50 in data set [2] was above 100 µM. The “c-Met inhibition % Inhibition (10 μΜ)” value on c-Met kinase is recorded as 24.2 ± 0.1%. The IC50 in data set [3] is above 100 µM.

As to `COc1cc2nccc(Nc3ccc4nc(-c5c(F)cccc5F)[nH]c4c3)c2cc1OC` [Compound 12p, N-(2–(2,6-difluorophenyl)-1H-benzo[d]imidazol-6-yl)-6,7-dimethoxyquinolin-4-amine], the melting point was in the range of 208 to 210 °C. The IC50 in data set [1] was above 100 µM. Besides, the IC50 in data set [2] was above 100 µM. In addition, at c-Met kinase, the “c-Met inhibition % Inhibition (10 μΜ)” value amounted to 25.9 ± 1.5% and the “c-Met inhibitory activity in words” value is “loss of activity”. For the same compound, the IC50 in data set [3] is above 100 µM.

`COc1cc2nccc(Nc3ccc4nc(-c5c(Cl)cccc5Cl)[nH]c4c3)c2cc1OC` [Compound 12q, N-(2–(2,6-dichlorophenyl)-1H-benzo[d]imidazol-6-yl)-6,7-dimethoxyquinolin-4-amine] came in with a melting point of 254 to 257 °C. The IC50 in data set [1] is above 100 µM. Moreover, the IC50 in data set [2] was above 100 µM. For the same compound, on c-Met kinase, the “c-Met inhibition % Inhibition (10 μΜ)” value worked out at 37.0 ± 4.0% and the “c-Met inhibitory activity in words” value was “loss of activity”. Further, the IC50 in data set [3] was above 100 µM.

For the compound `COc1cc2nccc(Nc3ccc4nc(-c5ccc(Cl)c(Cl)c5)[nH]c4c3)c2cc1OC` [Compound 12r, N-(2–(3,4-dichlorophenyl)-1H-benzo[d]imidazol-6-yl)-6,7-dimethoxyquinolin-4-amine], the melting point was in the range of 336 to 338 °C. For the same compound, the IC50 in data set [1] is 79.2 ± 1.7 µM. Moreover, the IC50 in data set [2] is above 100 µM. On c-Met kinase, the “c-Met inhibition % Inhibition (10 μΜ)” value is 55.4 ± 2.9% and the IC50 is 5.3 ± 1.6 µM. For the same compound, the IC50 in data set [3] worked out at 83.6 ± 4 µM.

Regarding `COc1cc2nccc(Nc3ccc4nc(-c5cc(F)ccc5Br)[nH]c4c3)c2cc1OC` [Compound 12s, N-(2–(2-bromo-5-fluorophenyl)-1H-benzo[d]imidazol-6-yl)-6,7-dimethoxyquinolin-4-amine], the melting point lay within 284 to 286 °C. Moreover, the IC50 in data set [1] turned out to be 92.7 ± 5.3 µM. Besides, the IC50 in data set [2] was above 100 µM. Besides, at c-Met kinase, the “c-Met inhibition % Inhibition (10 μΜ)” value is reported as 23.0 ± 1.1% and the “c-Met inhibitory activity in words” value is “loss of activity”. Besides, the IC50 in data set [3] was above 100 µM.
